Row | SMILES | melting point
1 | COC(=O)c1ccc(OC)c(Oc2nnc(Cl)cc2O)c1 [Compound No. 2574, Methyl 3-[(6-chloro-4-hydroxy-3-pyridazinyl)oxy]-4-methoxybenzoate] | 115 to 123 °C
2 | Cc1ccc(C(=O)Oc2cc(Cl)nnc2Oc2ccccc2C)cc1 [Compound No. 1553, 6-Chloro-3-(2-methylphenoxy)-4-pyridazinyl 4-methylbenzoate] | 105 to 108 °C
3 | CCOc1ccccc1Oc1nnc(Cl)cc1O [Compound No. 386, 6-Chloro-3-(2-ethoxyphenoxy)-4-pyridazinol] | 155 to 175 °C
4 | Oc1cc(Cl)nnc1Oc1cccc(C2CC2)c1 [Compound No. 417, 6-Chloro-3-(3-cyclopropylphenoxy)-4-pyridazinol] | 179 to 181 °C
5 | Cc1cccc(C2CC2)c1Oc1nnc(Cl)cc1OC(=O)N(CCC#N)CCC#N | 159 to 161 °C
6 | Cc1ccc(S(=O)(=O)Oc2cc(Cl)nnc2Oc2ccccc2C2CCCCC2)cc1 [Compound No. 2230, 6-Chloro-3-(2-cyclohexylphenoxy)-4-pyridazinyl 4-methylbenzenesulfonate] | 120 to 121 °C
7 | CCN(CC)C(=O)Oc1cc(Cl)nnc1Oc1c(C)cccc1C1CC1 | 119 to 121 °C
8 | Oc1cc(Cl)nnc1Oc1ccccc1C1(c2ccccc2)CC1 [Compound No. 184, 6-Chloro-3-[2-(1-phenylcyclopropyl)phenoxy]-4-pyridazinol] | 172 to 173 °C
9 | C[Si](C)(C)c1ccc(Oc2nnc(Cl)cc2OC(=O)c2ccccc2)cc1 | 100 to 102 °C
10 | Cc1cccc(C2CC2)c1Oc1nnc(Cl)cc1C(=O)[O-].[K+] | 187 to 189 °C
11 | CCC(=O)Oc1cc(Cl)nnc1Oc1c(C)cccc1C1CC1 [Compound No. 1160, 6-Chloro-3-(2-cyclopropyl-6-methylphenoxy)-4-pyridazinyl propionate] | 75 to 77 °C
12 | Oc1cc(Cl)nnc1Oc1ccccc1Cc1ccccc1 [Compound No. 315, 3-(2-Benzylphenoxy)-6-chloro-4-pyridazinol] | 185 to 187 °C
13 | Oc1cc(Cl)nnc1Oc1ccccc1CC1CC1 [Compound No. 311, 6-Chloro-3-[2-(cyclopropylmethyl)phenoxy]-4-pyridazinol] | 165 to 168 °C
14 | Oc1cc(Cl)nnc1Oc1ccccc1C1(F)CC1 [Compound No. 140, 6-Chloro-3-[2-(1-fluorocyclopropyl)phenoxy]-4-pyridazinol] | 152 to 157 °C
15 | Oc1cc(Cl)nnc1Oc1ccccc1 [Compound No. 123, 6-Chloro-3-phenoxy-4-pyridazinol] | 222 to 224 °C
16 | Oc1cc(Cl)nnc1Oc1ccc(Cl)cc1 [Compound No. 427, 6-Chloro-3-(4-chlorophenoxy)-4-pyridazinol] | 226 to 231 °C
17 | CC1CC1c1ccccc1Oc1nnc(Cl)cc1O (centres unmarked) [Compound No. 217, 6-Chloro-3-[2-(2-methylcyclopropyl)phenoxy]-4-pyridazinol] | 192 to 208 °C
18 | O=Cc1cccc(Oc2nnc(Cl)cc2O)c1 [Compound No. 421, 3-[(6-Chloro-4-hydroxy-3-pyridazinyl)oxy]benzaldehyde] | 188 to 192 °C

Further lines, results first:

Row | melting point | SMILES
19 | 213 to 214 °C | CSc1c(C)cc(C)cc1Oc1nnc(Cl)cc1O [Compound No. 1027, 6-Chloro-3-[3,5-dimethyl-2-(methylsulfanyl)phenoxy]-4-pyridazinol]
20 | 241 to 244 °C | Cc1c(Oc2nnc(Cl)cc2O)cccc1[N+](=O)[O-] [Compound No. 458, 6-Chloro-3-(2-methyl-3-nitrophenoxy)-4-pyridazinol]
21 | 212 to 219 °C | Cc1cc(C)c(C2CC2)c(Oc2nnc(Cl)cc2O)c1C [Compound No. 1126, 6-Chloro-3-(2-cyclopropyl-3,5,6-trimethylphenoxy)-4-pyridazinol]
22 | 168 to 169 °C | Cc1ccc(C(C)C)cc1Oc1nnc(Cl)cc1O [Compound No. 623, 6-Chloro-3-(5-isopropyl-2-methylphenoxy)-4-pyridazinol]
23 | 238 to 240 °C (dec.) | Cc1c(C)c(C)c(Oc2nnc(Cl)cc2O)c(C)c1C [Compound No. 2614, 6-Chloro-3-(2,3,4,5,6-pentamethylphenoxy)-4-pyridazinol]
24 | 194 to 195 °C | CCc1cccc(Cl)c1Oc1nnc(Cl)cc1O [Compound No. 737, 6-Chloro-3-(2-chloro-6-ethylphenoxy)-4-pyridazinol]
25 | 140 to 143 °C | Cc1c([N+](=O)[O-])ccc(C2CC2)c1Oc1nnc(Cl)cc1O [Compound No. 2589, 6-Chloro-3-(6-cyclopropyl-2-methyl-3-nitrophenoxy)-4-pyridazinol]
26 | 194 to 199 °C | COc1cccc(C2CC2)c1Oc1nnc(Cl)cc1O [Compound No. 964, 6-Chloro-3-(2-cyclopropyl-6-methoxyphenoxy)-4-pyridazinol]
27 | 183 to 186 °C | C=CCc1c(OC)ccc(CC)c1Oc1nnc(Cl)cc1O [Compound No. 1080, 3-(2-Allyl-6-ethyl-3-methoxyphenoxy)-6-chloro-4-pyridazinol]
28 | 250 to 252 °C | Cc1c(Cl)cccc1Oc1nnc(Cl)cc1O [Compound No. 454, 6-Chloro-3-(3-chloro-2-methylphenoxy)-4-pyridazinol]
29 | 203 to 207 °C | CC(C)(C)c1cccc(Oc2nnc(Cl)cc2O)c1 [Compound No. 416, 3-(3-tert-Butylphenoxy)-6-chloro-4-pyridazinol]
30 | 220 to 225 °C | Oc1cc(Cl)nnc1Oc1cccc2occc12 [Compound No. 531, 3-(1-benzofuran-4-yloxy)-6-chloro-4-pyridazinol]
31 | 225 to 228 °C | CCSc1cc(Oc2nnc(Cl)cc2O)c(Br)cc1Br [Compound No. 2596, 6-Chloro-3-[2,4-dibromo-5-(ethylsulfanyl)phenoxy]-4-pyridazinol]
32 | 232 to 253 °C (dec.) | CC(C)c1cccc(Br)c1Oc1nnc(Cl)cc1O [Compound No. 760, 3-(2-Bromo-6-isopropylphenoxy)-6-chloro-4-pyridazinol]
33 | 274 to 278 °C | Oc1cc(Cl)nnc1Oc1c(Br)cccc1Br [Compound No. 756, 6-Chloro-3-(2,6-dibromophenoxy)-4-pyridazinol]
34 | 242 to 244 °C | CCc1cccc(I)c1Oc1nnc(Cl)cc1O [Compound No. 781, 6-Chloro-3-(2-ethyl-6-iodophenoxy)-4-pyridazinol]
35 | 219 to 221 °C | Cn1ccc2cccc(Oc3nnc(Cl)cc3O)c21 [Compound No. 2568, 6-Chloro-3-[(1-methyl-1H-indol-7-yl)oxy]-4-pyridazinol]
36 | 205 to 209 °C | CC(C)c1cccc([N+](=O)[O-])c1Oc1nnc(Cl)cc1O [Compound No. 911, 6-Chloro-3-(2-isopropyl-6-nitrophenoxy)-4-pyridazinol]
37 | 228 to 229.5 °C | CC1(C)Cc2cccc(Oc3nnc(Cl)cc3O)c2O1 [Compound No. 540, 6-Chloro-3-[(2,2-dimethyl-2,3-dihydro-1-benzofuran-7-yl)oxy]-4-pyridazinol]
38 | 231 to 235 °C | CC(C)c1cc(Oc2nnc(Cl)cc2O)cc(C(C)C)c1 [Compound No. 642, 6-Chloro-3-(3,5-diisopropylphenoxy)-4-pyridazinol]
